Columns and labels:
[1] = tested on: i-shVPS4A-expressing crVPS4B U2OS cells; experiment: VPS4 synthetic cell death in i-shVPS4A-expressing crVPS4B cells (YOYO-3); type: cell-based; conditions: 1 μg/mL Dox; 20 μM z-VAD-fmk, 50 μM z-IETD-fmk
Experimental: To measure caspase activity, cells cultured in white opaque-bottom 384-well plates were incubated in the presence or absence of 1 μg/mL Dox for 24 hours. Caspase-Glo 8 or 3/7 reagent was then added 1:1 and allowed to incubate for 90 minutes at RT followed by luminescence measurement using the CLARIOstar microplate reader (BMG LABTECH). Signals had background luminescence subtracted and then normalized to the respective Dox-untreated i-GFP-expressing parental controls to obtain relative CASP8-like LETDase or CASP3/7-like DEVDase activities. For live-cell quantification, the cells seeded on black clear-bottom 96-well plates were incubated with the indicated compounds (0.1% to 0.3% DMSO final) in the presence of 100 nM YOYO-3, a cell-impermeant DNA-binding fluorescent probe that stains membrane integrity-impaired, dead cells. […] Phase and fluorescence images were obtained at the indicated intervals using the IncuCyte S3 Live-Cell Analysis System (Essen BioScience; 10× objective) and then analyzed using the Cell-by-Cell Analysis module (Essen BioScience; 9600-0031) of IncuCyte S3 Software (Essen BioScience; Version 2019B Rev2). To quantify the percentage of dead GFP-expressing cells, the GFP and YOYO-3 double-positive cell population was divided by the total GFP-positive cell population. […]

[2] = tested on: U2OS cells; experiment: Immunoblot analysis of VPS4- and VCP-mediated pathways (autophagy, ER stress, ERAD); type: cell-based; conditions: 0.6 μM CB-5083, 1 μM 4-107, complete media; for ER stress (HSPA5, ATF4) / autophagy (SQSTM1, LC3-II): 5 μM DBeQ
Experimental: Whole-cell lysates were prepared in radio-immunoprecipitation buffer (25 mM Tris-HCl, pH 8.0, 150 mM NaCl, 1 mM EDTA, 1% v/v IGEPAL CA-630, 0.5% w/v sodium deoxycholate, and 1% v/v SDS) containing protease (1:250) and phosphatase inhibitor cocktails (1:100) then resolved via SDS-PAGE and probed with the indicated antibodies. Signals were acquired with the Odyssey CLx (LI-COR) for fluorescence or Odyssey XF (LI-COR) for chemiluminescence detection and visualized in Image Studio version 6 (LI-COR).
VPS4 is essential for autophagy and loss of VPS4 function inhibits autophagic flux ([Takahashi et al, 2018]; [Zhen et al, 2019]). Meanwhile, VCP is required for endoplasmic reticulum-associated degradation (ERAD; [Rabinovich et al, 2002]) where VCP inhibition results in the accumulation of ubiquitinated proteins and induction of ER stress ([Weihl et al, 2006]; [Bastola et al, 2016]).

[3] = target: T1, recombinant human VCP (Rattus norvegicus, UniProt P46462); experiment: VCP ATPase activity, EnzChek Phosphate assay; type: biochemical
T1 construct: His (N); host or cells: Escherichia coli BL21(DE3)
Experimental: (§1) VPS4B and VCP ATPase activities were measured using the EnzChek Phosphate assay for the quantification of released phosphate. Assay buffers were based on literature precedents ([Cupido et al, 2019], [2021]) as follows: VPS4B buffer (20 mM HEPES-KOH, pH 7.4, 25 mM KOAc, 2 mM MgCl2, 5 mM (NH4)2SO4, 0.5 mM CaCl2, 2.5 mM DTT, 0.1 mg/mL BSA, 0.005% v/v Triton X-100), VCP buffer (20 mM HEPES-NaOH, pH 7.4, 20 mM NaCl, 10 mM MgCl2, 5 mM (NH4)2SO4, 0.5 mM CaCl2, 2.5 mM DTT, 0.1 mg/mL BSA, 0.005% v/v Triton X-100). In black clear-bottom 384-well plates, 22.5 μL of 5% DMSO or 40× test compounds diluted in the respective assay buffer was added to each well. ATPases were diluted to 1 μM in the respective buffers containing 2× EnzChek Phosphate assay coupling reagents of 400 μM MESG and 2 U of PNP, then 25 μL was added to each well. Plates were mixed at 1000 rpm for 30 minutes at RT while being protected from light. The reaction was initiated by adding 2.5 μL of 20 mM MgATP or water followed by mixing at 1200 rpm for 30 seconds at RT. Plates were measured at 360 nm using a CLARIOstar plate reader (BMG LABTECH) for 20 minutes at 37 °C. ATPase activity was calculated as the amount of phosphate released over a 5-minute interval under linear initial velocity conditions. The remaining ATPase activity was calculated by normalizing compound-treated activity values to the DMSO control. IC50 was calculated by fitting normalized values to a sigmoidal dose-response curve with Hill slope = −1 using Graph Pad Prism 10.0.
(§2) To identify VPS4i, we developed enzyme- and cell-based VPS4 functional assays to serve as VPS4i-screening platforms. For the enzyme-based assay, we used the colorimetric EnzChek Phosphate assay that detects free phosphate with the advantage of continuous measurement of ATP hydrolysis over time. […] Due to the high sequence and structural similarity of AAA-ATPases, we also established a VCP ATPase assay to evaluate hit selectivity. […] For the cell-based assay, our approach was based on how VPS4 inhibition causes the accumulation of ESCRT-III ([Babst et al, 1998]; [Katoh et al, 2003]). We used an N-terminal GFP-tagged CHMP4B reporter system because it is the most abundant ESCRT-III subunit ([Katoh et al, 2004]; [Teis et al, 2008]). Our aim was to test compounds under short-term serum and amino acid starvation to stimulate ESCRT activity for easier detection of inhibitors ([Takahashi et al, 2018], [2019]). […] Overall, we established 2 systems for VPS4i screening, a VPS4B ATPase activity assay and a GFP-CHMP4B accumulation cell-based assay.

[4] = tested on: GFP-CHMP4B-expressing U2OS cells; experiment: GFP-CHMP4B accumulation cell-based assay (high-content microscopy)
Outline: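 GFP-CHMP4B U2OS cells were cultured overnight, stained, then treated in SM with compounds (0.1% DMSO or 0.1% DMSO/0.1% ethanol vehicle final). High-content imaging used a 20× NA .70 objective at set intervals, ≥300 cells/well over 3 fields/well.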

[5] = target: T2, VPS4B (Homo sapiens, UniProt O75351); experiment: VPS4B ATPase activity, EnzChek Phosphate assay; type: biochemical; design: His tag (pET28a vector-encoded) (N); made in house; host or cells: Escherichia coli BL21(DE3)
T2 sequence (O75351 1-444): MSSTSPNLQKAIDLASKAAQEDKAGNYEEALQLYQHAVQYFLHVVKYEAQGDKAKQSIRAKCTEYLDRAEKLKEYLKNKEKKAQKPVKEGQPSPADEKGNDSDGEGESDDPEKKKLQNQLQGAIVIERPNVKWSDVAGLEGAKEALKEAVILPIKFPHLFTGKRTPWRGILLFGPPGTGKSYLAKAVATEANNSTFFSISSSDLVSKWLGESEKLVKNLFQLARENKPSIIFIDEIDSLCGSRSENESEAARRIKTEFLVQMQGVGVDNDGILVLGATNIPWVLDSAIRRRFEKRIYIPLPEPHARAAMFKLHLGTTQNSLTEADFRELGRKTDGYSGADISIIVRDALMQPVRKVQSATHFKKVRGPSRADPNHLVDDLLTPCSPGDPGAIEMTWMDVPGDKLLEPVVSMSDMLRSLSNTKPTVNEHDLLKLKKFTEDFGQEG
Outline: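 EnzChek phosphate release (MESG/PNP, 360 nm) with ATPases at 1 μM (diluted stock) in HEPES pH 7.4 buffers with MgCl2, CaCl2, DTT, BSA, Triton; 30 min compound preincubation at RT, started with MgATP, read 20 min at 37 °C. Activity from 5-min linear initial rate, normalized to DMSO; IC50 from Hill slope −1 fit.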

[6] = target: T3, recombinant human VCP; experiment: VCP ATPase activity, EnzChek Phosphate assay; type: biochemical; conditions: 0.5 μM enzyme
T3 construct: His (N); host or cells: Escherichia coli BL21(DE3)
Experimental: as §1, §2

[7] = target: T2, VPS4B; experiment: VPS4B cellular thermal shift assay (CETSA); type: cell-based; design: endogenous in cells; host or cells: U2OS; conditions: 5 μM DBeQ, 1 hour, starved U2OS cells
Experimental: The VPS4B CETSA was performed as previously described with modification ([Jafari et al, 2014]). In 10-cm dishes, near-confluent U2OS cells were rinsed with 1× DPBS and treated with the indicated compounds in acclimatized SM for 1 hour at 37 °C (0.1% DMSO). Cells were trypsinized, pelleted at 300 × g for 5 minutes, and washed with 1× PBS. After repeat pelleting at 300 × g for 5 minutes, the cells were resuspended in 1× PBS with protease inhibitor cocktail (1:250) and aliquoted into PCR strips with 20 μL per tube. PCR strips for each treatment were heated on a temperature gradient for 3 minutes using a thermal cycler (Bio-Rad Laboratories), followed by incubation at RT for 3 minutes. […] To normalize protein loading for SDS-PAGE, the soluble protein concentration of each 37 °C sample was quantified via the Pierce BCA assay ([…]), and a volume equal to 10 μg of protein was used for all samples from the same treatment. […] Signals were acquired with the Odyssey CLx (LI-COR) and quantified via densitometry using Image Studio version 6 (LI-COR). The remaining VPS4B levels were calculated by first obtaining the ratio of VPS4B:ACTB band intensities of each sample and then normalizing these ratios to that of the respective 37 °C sample. […]

[8] = screened at 5 µM, mean ± S.D., Supplemental Table 2
[9] = screened at 1 µM, mean ± S.D., Supplemental Table 2
[10] = screened at 1 μM, starvation media, 1 hour, foci intensity per cell normalized to 4-107, mean ± SD, Table 1
[11] = remaining ATPase activity, screened at 5 μM, mean ± SD, Table 1

T1 sequence (P46462 2-806 limits assumed): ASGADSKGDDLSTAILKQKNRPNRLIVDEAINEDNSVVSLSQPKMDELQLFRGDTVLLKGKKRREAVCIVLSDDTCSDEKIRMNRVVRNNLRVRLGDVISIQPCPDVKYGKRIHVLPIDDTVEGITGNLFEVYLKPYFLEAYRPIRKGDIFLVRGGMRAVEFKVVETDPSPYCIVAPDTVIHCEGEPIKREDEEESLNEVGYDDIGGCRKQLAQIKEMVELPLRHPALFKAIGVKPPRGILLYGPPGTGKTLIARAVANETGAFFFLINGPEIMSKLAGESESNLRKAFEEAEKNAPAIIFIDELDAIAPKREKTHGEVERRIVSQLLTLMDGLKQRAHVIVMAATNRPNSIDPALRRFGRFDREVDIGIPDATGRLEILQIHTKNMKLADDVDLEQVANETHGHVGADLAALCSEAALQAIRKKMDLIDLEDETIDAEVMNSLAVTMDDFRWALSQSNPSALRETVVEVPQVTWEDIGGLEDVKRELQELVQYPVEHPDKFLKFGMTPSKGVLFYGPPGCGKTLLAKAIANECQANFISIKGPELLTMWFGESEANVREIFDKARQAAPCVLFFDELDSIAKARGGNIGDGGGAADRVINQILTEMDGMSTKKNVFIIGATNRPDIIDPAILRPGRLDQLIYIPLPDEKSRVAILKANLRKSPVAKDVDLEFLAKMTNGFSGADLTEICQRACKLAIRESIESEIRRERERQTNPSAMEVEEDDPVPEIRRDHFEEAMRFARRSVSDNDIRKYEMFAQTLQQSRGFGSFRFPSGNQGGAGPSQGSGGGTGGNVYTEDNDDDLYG
T3 sequence (P46462 2-806 limits assumed): as above

Row | Compound | rescue of VPS4 synthetic cell death [1] | ER stress (HSPA5, ATF4) [2] | autophagy (SQSTM1, LC3-II) [2] | VCP ATPase (% DMSO) [3, 8] | GFP-CHMP4B (% 4-107) [4, 9] | VPS4B ATPase (% DMSO) [5, 8] | GFP-CHMP4B (% 4-107) [4, 10] | VPS4B ATPase (% DMSO) [5, 11] | other results
1 | z-IETD-fmk | partially rescued |  |  |  |  |  |  |  | 
2 | Cc1cc2c(C(N)=O)cccc2n1-c1nc2c(c(NCc3ccccc3)n1)COCC2 [CB-5083] |  | strongly induced ER stress | reduction in SQSTM1, indicating the stimulation of autophagy |  |  |  |  |  | accumulation of K48-linked polyubiquitinated proteins [2]: accumulation of K48-linked polyubiquitinated proteins
3 | COc1cccc2c(NCc3ccccc3)nc(NCc3ccc(C#N)cc3)nc12 [Compound 7-05] |  |  |  | 95.43 ± 0.86 % DMSO | 42.59 ± 0.15 % 4-107 | 54.50 ± 2.02 % DMSO |  |  | 
4 | z-VAD-fmk | partially rescued |  |  |  |  |  |  |  | 
5 | COc1cccc2c(NCc3ccccc3)nc(NCc3cccc(F)c3)nc12 [Compound 20] |  |  |  | 80.50 ± 0.40 % DMSO | 99.48 ± 22.3 % 4-107 | 35.22 ± 0.66 % DMSO | 99.48 ± 22.30 % 4-107 | 35.22 ± 0.66 % DMSO | VCP ATPase (% DMSO) ([3]; remaining ATPase activity, screened at 5 μM, mean ± SD, Table 2): 80.50 ± 0.57 % DMSO
6 | c1ccc(CNc2nc(NCc3ccccc3)c3ccccc3n2)cc1 [DBeQ] |  | mildly induced ER stress | time-dependently inhibited autophagy | 74.64 ± 6.01 % DMSO | 8.93 ± 3.51 % 4-107 | 41.96 ± 7.53 % DMSO | 8.93 ± 3.51 % 4-107 | 41.96 ± 7.53 % DMSO | IC50 [6]: 15.9 ± 4.9 µM; accumulation of GFP-CHMP4B ([4]; 2 and 5 μM DBeQ, starved cells, 2 hours): dose-dependent accumulation of GFP-CHMP4B; change of VPS4B thermal stability (Tagg) [7]: subtle thermal destabilization of VPS4B that was not statistically significant; IC50 ([5]; 0.5 μM enzyme): 3.9 ± 1.2 µM

Source: article PMC13095408, “DBeQ derivative targets vacuolar protein sorting 4 functions in cancer cells and suppresses tumor growth in mice” (The Journal of Pharmacology and Experimental Therapeutics, 2025)
